Reference: the supplement of paper PMC11208160

experiment: recombinant barcode read abundance after kanamycin selection (control-corrected) (log10(CPM+1)); higher = more efficient recombination; sequences stand for … in AGTGCAGAGAAAATCGGCCAGTTTTCTCTGCCTGCAGTCCGCATGCCGT…AGATTTATGCAGCGGACTGCCTTTCTCCCAAAGTGATAAACCGGACAGTATCATGGACCGGTTTTCCCGGTAATCCGTATTTGCAAGGTTGGTTTCACT; site = the 11-nt target
Method in brief: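 IS621 bridge RNA target-binding loops were paired with targets in a pooled library tested in E. coli. After co-electroporation with a donor plasmid, cells were plated in two replicates on chloramphenicol/ampicillin LB agar (control) and on chloramphenicol/ampicillin/kanamycin carrying 0.1 mM IPTG. Barcodes at recombinant junctions were counted as counts per million, averaged and control-corrected to give recombination efficiency. Values are log10(CPM+1).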
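Note: IS621 recombinase and bridge RNA in Escherichia coli cells.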

| Sequence | recombinant barcode read abundance (log10) |
| --- | --- |
| GCACCTGCTTGGGTTCTAACCTGTTGCCT (site GCACCTGCTAG) | 1.61 |
| GCACCTGCTTGGGTTCTAACCTGTTGCCT (site TATTTGCCTCA) | 0.238 |
| GCACGCTCTTGGGTTCTAACCTGTTGCCT (site GCACACTCTAG) | 0.607 |
| GCACGCTCTTGGGTTCTAACCTGTTGCCT (site GCACCCTCTAG) | 0.192 |
| GCACGCTCTTGGGTTCTAACCTGTTGCCT (site GCACGCTCTAG) | 1.55 |
| GCACGCTCTTGGGTTCTAACCTGTTGCCT (site GCACTCTCTAG) | 0.12 |
| GCACTCTCTTGGGTTCTAACCTGTTGCCT (site GCACACTCTAG) | 0.0251 |
| GCACTCTCTTGGGTTCTAACCTGTTGCCT (site GCACCCTCTAG) | 0.568 |
| GCACTCTCTTGGGTTCTAACCTGTTGCCT (site GCACGCTCTAG) | 0.101 |
| GCACTCTCTTGGGTTCTAACCTGTTGCCT (site GCACTCTCTAG) | 1.58 |
| GCATCCACTTGGGTTCTAACCTGTTGCCT (site GCATCCACTAG) | 0.938 |
| GCATCCACTTGGGTTCTAACCTGTTGCCT (site GCGTCCACTAG) | 0.0333 |
| GCATCTACTTGGGTTCTAACCTGTTGCCT (site GAATCTACTAG) | 0.101 |
| GCATCTACTTGGGTTCTAACCTGTTGCCT (site GCATCTACTAG) | 0.136 |
| GCATCTACTTGGGTTCTAACCTGTTGCCT (site GGATCTACTAG) | 0.059 |
| GCATCTACTTGGGTTCTAACCTGTTGCCT (site GTATCTACTAG) | 0.2 |
| GCATCTCCTTGGGTTCTAACCTGTTGCCT (site ACATCTCCTAG) | 0.4 |
| GCATCTCCTTGGGTTCTAACCTGTTGCCT (site CCATCTCCTAG) | 0.103 |
| GCATCTCCTTGGGTTCTAACCTGTTGCCT (site GCATCTCCTAG) | 1.06 |
| GCATCTCCTTGGGTTCTAACCTGTTGCCT (site TCATCTCCTAG) | 0.0491 |
| GCATGAGCTTGGGTTCTAACCTGTTGCCT (site GCATGAGCTAG) | 2.09 |
| GCATGAGCTTGGGTTCTAACCTGTTGCCT (site GCCTGAGCTAG) | 0.122 |

| Sequence | recombinant barcode read abundance (log10) |
| --- | --- |
| GCATGAGCTTGGGTTCTAACCTGTTGCCT (site GCGTGAGCTAG) | 0.136 |
| GCATGAGCTTGGGTTCTAACCTGTTGCCT (site GCTTGAGCTAG) | 0.914 |
| GCCAACCCTTGGGTTCTAACCTGTTGCAT (site GCCAACCCTAA) | 0.0781 |
| GCCAACCCTTGGGTTCTAACCTGTTGCAT (site GCCAACCCTAC) | 0.0603 |
| GCCAACCCTTGGGTTCTAACCTGTTGCAT (site GCCAACCCTAG) | 0.348 |
| GCCAACCCTTGGGTTCTAACCTGTTGCAT (site GCCAACCCTAT) | 0 |
| GCCAACCCTTGGGTTCTAACCTGTTGCTA (site GCCAACCCTTA) | 0.116 |
| GCCAACCCTTGGGTTCTAACCTGTTGCTA (site TCCAACCCTTG) | 0.129 |
| GCCACACCTTGGGTTCTAACCTGTTGCCT (site GCCAAACCTAG) | 0.188 |
| GCCACACCTTGGGTTCTAACCTGTTGCCT (site GCCACACCTAG) | 0.222 |
| GCCACACCTTGGGTTCTAACCTGTTGCCT (site GCCAGACCTAG) | 0.177 |
| GCCACACCTTGGGTTCTAACCTGTTGCCT (site GCCATACCTAG) | 0.153 |
| GCCAGGGCTTGGGTTCTAACCTGTTGCCG (site GCCAGGGCTCG) | 0.461 |
| GCCAGGGCTTGGGTTCTAACCTGTTGCCG (site GCCCGGGCTCG) | 0.264 |
| GCCAGGGCTTGGGTTCTAACCTGTTGCCG (site GCCGGGGCTCG) | 0.111 |
| GCCAGGGCTTGGGTTCTAACCTGTTGCCG (site GCCTGGGCTCG) | 0.0195 |
| GCCATACCTTGGGTTCTAACCTGTTGCCT (site GCCAAACCTAG) | 0.0715 |
| GCCATACCTTGGGTTCTAACCTGTTGCCT (site GCCACACCTAG) | 0.0723 |
| GCCATACCTTGGGTTCTAACCTGTTGCCT (site GCCAGACCTAG) | 0.194 |
| GCCATACCTTGGGTTCTAACCTGTTGCCT (site GCCATACCTAG) | 0.199 |
| GCCATGACTTGGGTTCTAACCTGTTGCCT (site GCCATAACTAG) | 0.067 |
| GCCATGACTTGGGTTCTAACCTGTTGCCT (site GCCATCACTAG) | 0.0872 |

| Sequence | recombinant barcode read abundance (log10) |
| --- | --- |
| GCCATGACTTGGGTTCTAACCTGTTGCCT (site GCCATGACTAG) | 0.132 |
| GCCATGACTTGGGTTCTAACCTGTTGCCT (site GCCATTACTAG) | 0 |
| GCCCAATCTTGGGTTCTAACCTGTTGCCT (site GCCCAATCTAG) | 1.05 |
| GCCCAATCTTGGGTTCTAACCTGTTGCCT (site GCCCCATCTAG) | 0.115 |
| GCCCAATCTTGGGTTCTAACCTGTTGCCT (site GCCCGATCTAG) | 0.176 |
| GCCCAATCTTGGGTTCTAACCTGTTGCCT (site GCCCTATCTAG) | 0.195 |
| GCCCAGCCTTGGGTTCTAACCTGTTGCGG (site ACCAAGCCTCC) | 0.0607 |
| GCCCAGCCTTGGGTTCTAACCTGTTGCGG (site GCCCAGCCTCC) | 2.71 |
| GCCCTCCCTTGGGTTCTAACCTGTTGCCT (site GCACTCCCTAG) | 0.558 |
| GCCCTCCCTTGGGTTCTAACCTGTTGCCT (site GCCCTCCCTAG) | 1.77 |
| GCCCTCCCTTGGGTTCTAACCTGTTGCCT (site GCGCTCCCTAG) | 0.0524 |
| GCCCTCCCTTGGGTTCTAACCTGTTGCCT (site GCTCTCCCTAG) | 0.597 |
| GCCGGCTCTTGGGTTCTAACCTGTTGCCT (site GACGGCTCTAG) | 0.182 |
| GCCGGCTCTTGGGTTCTAACCTGTTGCCT (site GCCGGCTCTAG) | 1.35 |
| GCCTAGTCTTGGGTTCTAACCTGTTGCCA (site GCCTAGTCTTG) | 1.13 |
| GCCTAGTCTTGGGTTCTAACCTGTTGCCA (site TCCTAGTCTTG) | 0.0302 |
| GCCTCGGCTTGGGTTCTAACCTGTTGCCT (site GCATCGGCTAG) | 0.0156 |
| GCCTCGGCTTGGGTTCTAACCTGTTGCCT (site GCCTCGGCTAG) | 0.134 |
| GCCTCGGCTTGGGTTCTAACCTGTTGCCT (site GCGTCGGCTAG) | 0.0495 |
| GCCTCGGCTTGGGTTCTAACCTGTTGCCT (site GCTTCGGCTAG) | 0.0313 |
| GCCTCGTCTTGGGTTCTAACCTGTTGCCT (site GCATCGTCTAG) | 0.0638 |
| GCCTCGTCTTGGGTTCTAACCTGTTGCCT (site GCCTCGTCTAG) | 0.68 |

| Sequence | recombinant barcode read abundance (log10) |
| --- | --- |
| GCCTCGTCTTGGGTTCTAACCTGTTGCCT (site GCGTCGTCTAG) | 0.206 |
| GCCTCGTCTTGGGTTCTAACCTGTTGCCT (site GCTTCGTCTAG) | 0.0462 |
| GCCTGAGCTTGGGTTCTAACCTGTTGCCT (site GCATGAGCTAG) | 0 |
| GCCTGAGCTTGGGTTCTAACCTGTTGCCT (site GCCTGAGCTAG) | 0.303 |
| GCCTGAGCTTGGGTTCTAACCTGTTGCCT (site GCGTGAGCTAG) | 0.272 |
| GCCTGAGCTTGGGTTCTAACCTGTTGCCT (site GCTTGAGCTAG) | 0 |
| GCCTGGGCTTGGGTTCTAACCTGTTGCCG (site GCCAGGGCTCG) | 0.0298 |
| GCCTGGGCTTGGGTTCTAACCTGTTGCCG (site GCCCGGGCTCG) | 0.516 |
| GCCTGGGCTTGGGTTCTAACCTGTTGCCG (site GCCGGGGCTCG) | 0.114 |
| GCCTGGGCTTGGGTTCTAACCTGTTGCCG (site GCCTGGGCTCG) | 0.72 |
| GCCTGGGCTTGGGTTCTAACCTGTTGCCT (site GCCTGGGCTAG) | 0.317 |
| GCCTGGGCTTGGGTTCTAACCTGTTGCCT (site GCCTTGGCTAG) | 0.438 |
| GCCTTGGCTTGGGTTCTAACCTGTTGCCT (site GCCTGGGCTAG) | 0.195 |
| GCCTTGGCTTGGGTTCTAACCTGTTGCCT (site GCCTTGGCTAG) | 0.572 |
| GCGAACCCTTGGGTTCTAACCTGTTGCTT (site GCGAACCCTAA) | 1.47 |
| GCGAACCCTTGGGTTCTAACCTGTTGCTT (site TCGAACCCTAA) | 0.0595 |
| GCGACTCCTTGGGTTCTAACCTGTTGCTT (site GCGACTCCTAA) | 0.0299 |
| GCGACTCCTTGGGTTCTAACCTGTTGCTT (site GCGACTCCTAG) | 0.0916 |
| GCGCACACTTGGGTTCTAACCTGTTGCCT (site ACGCACACTAG) | 0.851 |
| GCGCACACTTGGGTTCTAACCTGTTGCCT (site CCGCACACTAG) | 0.206 |
